Data: US5312816A, “Method of combatting osteoporosis in mammalian subjects, utilizing organic boron compounds” (priority 1993, dated 1994)

Assays:
[1] = system: urinary excretion of calcium, magnesium, phosphorus; conditions: in the diet at 3 mg/day; cited from earlier work
Sprague Dawley Rats = test: Anti-inflammatory activity in Sprague Dawley rats; type: in vivo; conditions: Table IV; 8 mg/kg I.P.
Acid phosphatase [2] = test: Mouse hepatic lysosomal acid phosphatase activity; type: biochemical; conditions: for IC50: Table V, mouse hepatic, 60 min incubation
Excerpt: (§1) 1. Cf1 male mouse hepatic 10% homogenates in 0.25M sucrose+0.001MEDTA,pH 7.2.
(§2) Lysosomal Enzymes - free and total [triton X-100].
(§3) 1. Acid phosphatase -beta glycerol-3-phosphate, pH 5.0, released IP 720 nm.
Acid phosphatase activity -

Cathepsin D [3] = target: T1, Cathepsin D (Mus musculus, UniProt P18242); test: Mouse hepatic lysosomal cathepsin D activity; type: biochemical; conditions: for IC50: read-out: Cathepsin D IC50, Table V, mouse hepatic, 60 min incubation
T1 construct: azocasein assay pH 5.0
T1 sequence (P18242 65-410): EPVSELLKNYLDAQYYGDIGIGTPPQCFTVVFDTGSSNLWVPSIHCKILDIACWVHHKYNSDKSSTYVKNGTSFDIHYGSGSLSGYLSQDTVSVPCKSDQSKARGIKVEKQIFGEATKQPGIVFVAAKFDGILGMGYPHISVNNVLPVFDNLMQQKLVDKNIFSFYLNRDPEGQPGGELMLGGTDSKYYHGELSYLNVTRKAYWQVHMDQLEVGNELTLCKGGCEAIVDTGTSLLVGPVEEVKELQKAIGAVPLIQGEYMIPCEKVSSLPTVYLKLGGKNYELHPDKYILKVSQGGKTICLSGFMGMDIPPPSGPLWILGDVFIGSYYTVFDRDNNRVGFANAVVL
Excerpt: as §1, §2
(§4) 2. Acid Cathepsin D -azocasein-pH 5.0, hydrolytic azo-peptide produce 366 nm.
Cathepsin azo casein activity -

5'-lipoxygenase = target: T2, 5'-lipoxygenase (Mus musculus, UniProt P48999); test: Mouse hepatic 5'-lipoxygenase activity; type: biochemical
T2 construct: Cf1 male mouse hepatic 10% homogenates; from tissue; host or cells: CF1 male mouse liver, 10% homogenate
T2 sequence (P48999 1-674): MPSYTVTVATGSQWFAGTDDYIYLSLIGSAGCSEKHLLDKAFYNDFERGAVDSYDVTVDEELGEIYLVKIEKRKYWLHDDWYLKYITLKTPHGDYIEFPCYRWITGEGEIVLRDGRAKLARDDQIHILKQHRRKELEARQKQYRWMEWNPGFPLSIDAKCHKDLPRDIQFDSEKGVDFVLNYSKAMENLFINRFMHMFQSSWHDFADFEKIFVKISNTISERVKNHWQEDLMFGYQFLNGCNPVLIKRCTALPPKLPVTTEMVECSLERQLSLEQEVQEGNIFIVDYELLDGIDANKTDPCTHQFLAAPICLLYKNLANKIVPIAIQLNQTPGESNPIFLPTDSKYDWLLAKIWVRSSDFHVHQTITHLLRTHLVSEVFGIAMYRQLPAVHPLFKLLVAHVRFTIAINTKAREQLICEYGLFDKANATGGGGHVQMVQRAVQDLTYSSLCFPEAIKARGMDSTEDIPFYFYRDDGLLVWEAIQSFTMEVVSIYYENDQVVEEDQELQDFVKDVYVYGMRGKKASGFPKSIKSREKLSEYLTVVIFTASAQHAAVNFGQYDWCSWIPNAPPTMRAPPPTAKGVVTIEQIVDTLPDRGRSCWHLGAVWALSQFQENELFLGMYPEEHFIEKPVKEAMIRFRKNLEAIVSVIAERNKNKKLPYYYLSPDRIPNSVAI
Excerpt: as §1
5'-lipoxygenase Mylari, B.L., et al, J. Med.

Acid phosphatase [4] = test: Mouse macrophage acid phosphatase activity; type: cell-based; conditions: read-out: Acid Phosphatase IC50; Table VII; mouse macrophage cultured cells, 60 min incubation
Aryl sulphatase [5] = test: Mouse macrophage aryl sulphatase activity; type: cell-based; conditions: read-out: Aryl Sulphatase IC50; Table VII; mouse macrophage cultured cells, 60 min incubation
Trypsin [6] = test: Mouse macrophage trypsin (BAEE) activity; type: cell-based; conditions: read-out: Trypsin BAEE IC50; Table VIII; mouse macrophages, 60 min incubation
Elastase [7] = test: Mouse macrophage elastase activity; type: cell-based; conditions: read-out: Elastase IC50; Table VIII; mouse macrophages, 60 min incubation
[8] = system: Prostaglandin cyclooxygenase; test: Mouse macrophage prostaglandin cyclooxygenase activity; type: cell-based; conditions: read-out: Prostaglandin Cyclooxygenase IC50; Table VIII; mouse macrophages, 60 min incubation
Excerpt: 3. Mouse macrophages J774A.1 BALB/c
(§5) Prostaglandin synthetase purified beef seminal vesicle ^3 H arachidonic acid (86.2 Ci/mmol), tlc separation.

Trypsin [9] = test: Human osteoporosis fibroblasts trypsin (BAEE) activity; type: cell-based; conditions: read-out: Trypsin BAEE IC50; Table XI; human osteoporosis fibroblasts, 60 min incubation
Excerpt: 1. Trypsin- N-benzoyl-L-arginine ethyl ester pH 8.0, hydrolytic product 253 nm.

Cathepsin D [10] = target: T3, Cathepsin D (Homo sapiens, UniProt P07339); test: Human osteoporosis fibroblasts cathepsin D (azo-casein) activity; type: cell-based; conditions: read-out: Cathepsin D IC50; Table X; human osteoporosis fibroblasts, DMEM +10% FCS + P/S
T3 construct: azocasein assay pH 5.0
T3 sequence (P07339 65-412): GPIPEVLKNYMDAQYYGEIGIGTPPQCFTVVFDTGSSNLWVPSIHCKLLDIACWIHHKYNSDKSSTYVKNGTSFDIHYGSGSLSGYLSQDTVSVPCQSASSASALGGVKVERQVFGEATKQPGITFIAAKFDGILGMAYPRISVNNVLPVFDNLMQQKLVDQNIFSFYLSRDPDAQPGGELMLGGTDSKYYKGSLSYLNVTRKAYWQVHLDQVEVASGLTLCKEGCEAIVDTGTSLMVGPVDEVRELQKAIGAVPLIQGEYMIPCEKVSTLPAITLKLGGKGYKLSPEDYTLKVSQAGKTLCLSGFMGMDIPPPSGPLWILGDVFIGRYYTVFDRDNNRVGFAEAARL
Description: Osteoporosis Human Fibroblast-CRL-1140, Be SA1

Acid phosphatase [11] = test: Human osteoporosis fibroblasts acid phosphatase activity; type: cell-based; conditions: read-out: Acid Phosphatase IC50; Table X; human osteoporosis fibroblasts
Excerpt: as §3

Aryl sulphatase [12] = test: Human osteoporosis fibroblasts aryl sulphatase activity; type: cell-based; conditions: read-out: Aryl Sulphatase IC50; Table X; human osteoporosis fibroblasts
Excerpt: 3. Aryl sulphatase- p-nitrocatechol sulfate, pH
5. 8 p-nitro-catechol product 510 nm.

Elastase [13] = test: Human osteoporosis fibroblasts elastase activity; type: cell-based; conditions: read-out: Elastase IC50; Table XI; human osteoporosis fibroblasts, 60 min incubation
Excerpt: 2. Elastase- N-succinyl-L-alanyl-L-alanine-p-nitroanilide, pH 8.0, p-nitro anilide 410 nm.

[14] = system: Prostaglandin cyclooxygenase; test: Human osteoporosis fibroblasts prostaglandin cyclooxygenase activity; type: cell-based; conditions: read-out: Prostaglandin Cyclooxygense IC50, Table XI, 60 min incubation
[15] = target: Clostridium histolyticum Collagenase Type II; test: Commercial collagenase type II; type: biochemical; conditions: Table IX; commercial enzyme preparation
Excerpt: 4. Collagenase II, Clostridium histolyticum, cartilage collagen.

Cathepsin [16] = test: Human leukocyte cathepsin; type: cell-based; conditions: read-out: Cathepsin IC50; Table XII; human leukocytes, 60 min incubation
Excerpt: 5. Human peripheral leukocytes, RPMI-1788
as §4

Cf1 male mice [17] = test: Writhing reflex, 0.6% acetic acid; type: in vivo; set-up: response vs control in vivo: dose or concentration left out as unconfirmed; conditions: Mus musculus, ip, read-out: Writhing Reflex Cf1 Mice
in vivo = conditions: mouse, Table 1, N=6
Description: Amine borane compounds (0 to 100 mg/kg) were administered to CF1 male mice as a single injection with six mice for each dosage. Mice were weighed daily and the number of deaths was recorded each day for a 14 day period. The LD50 value was determined by the procedure of S.C. Gad and C.S. Weil, "Statistics for Toxicologists" in Principles and Methods of Toxicology, A.W. Hayes, Ed., 2nd Edition, P 435-483 Raven Press, New York 1982.

Cf1 male mice [18] = test: Anti-inflammatory screen, Winter's test, 2% carrageenan hind foot; type: in vivo; conditions: Table 1; drugs 8 or 10 mg/kg I.P. 2X; Indomethacin 10 mg/kg
Description: Anti-inflammatory Screen- Cf1 - male mice-Winter's Test 2% carrageenan S.C. plantar surface of hind foot, drugs administered @8 or 10 mg/kg I.P. 2X
Winter, C.A., et al, Proc. Soc.

Cf1 male mice [19] = test: Writhing reflex, 0.6% acetic acid; type: in vivo; conditions: Table 1; Indomethacin 10 mg/kg
Description: Writhing reflex- Cf1 -male mice- 0.6% acetic acid I.P. drugs administered @20 mg/kg/ I.P. 20 min. later - the # of stretches/10 min.
Hendershot, L.C., et al, J.

Sprague Dawley male rats [20] = test: Chronic adjuvant arthritis screen, Mycobacterium butyricum; type: in vivo; conditions: Table 1; Indomethacin 10 mg/kg
Sprague Dawley male rats [21] = test: Anti-pleurisy screen, Evans blue + carrageenan; type: in vivo; conditions: Table 1
Acid phosphatase [22] = test: Rat PMNs acid phosphatase activity; type: cell-based; conditions: 5 × 10^-6 M, N=6; 5 µM
Excerpt: (§6) 2. PMNs-polymorphonuclear neutrophils-rat peritoneal cavity 0.5% oyster glycogen.
as §3

Cathepsin [23] = target: T4, Cathepsin (Rattus norvegicus, UniProt P24268); test: Rat PMNs cathepsin activity; type: cell-based; conditions: pH 5; 5 × 10^-6 M, N=6; read-out: Rat PMNs Cathep.
T4 construct: azocasein assay pH 5.0
T4 sequence (P24268 65-407): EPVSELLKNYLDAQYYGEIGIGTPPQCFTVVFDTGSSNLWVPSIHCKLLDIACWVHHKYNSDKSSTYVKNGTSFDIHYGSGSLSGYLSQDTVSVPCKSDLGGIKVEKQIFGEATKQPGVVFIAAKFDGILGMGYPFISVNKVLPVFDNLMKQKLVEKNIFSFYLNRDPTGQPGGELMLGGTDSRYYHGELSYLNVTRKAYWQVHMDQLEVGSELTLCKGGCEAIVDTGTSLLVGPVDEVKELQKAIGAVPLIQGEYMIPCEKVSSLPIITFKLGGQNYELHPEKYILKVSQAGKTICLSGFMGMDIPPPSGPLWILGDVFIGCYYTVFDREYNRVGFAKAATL
Excerpt: as §6, §4

cAMP = test: PMNs cAMP levels, Gilman's radioimmune assay; type: cell-based, rat; conditions: 5 × 10^-6 M, N=6
Excerpt: as §6
cAMP levels Gilman's radioimmune assay. ^3 H(G)Cyclic-3', 5'-adenosine monophosphate.

Prostaglandin synthetase = target: T5, Prostaglandin synthetase (Bos taurus, UniProt O62664); test: Prostaglandin synthetase (cyclooxygenase), purified beef seminal vesicle; type: biochemical
T5 construct: Prostaglandin synthetase purified beef seminal vesicle; from tissue
T5 sequence (O62664 25-600): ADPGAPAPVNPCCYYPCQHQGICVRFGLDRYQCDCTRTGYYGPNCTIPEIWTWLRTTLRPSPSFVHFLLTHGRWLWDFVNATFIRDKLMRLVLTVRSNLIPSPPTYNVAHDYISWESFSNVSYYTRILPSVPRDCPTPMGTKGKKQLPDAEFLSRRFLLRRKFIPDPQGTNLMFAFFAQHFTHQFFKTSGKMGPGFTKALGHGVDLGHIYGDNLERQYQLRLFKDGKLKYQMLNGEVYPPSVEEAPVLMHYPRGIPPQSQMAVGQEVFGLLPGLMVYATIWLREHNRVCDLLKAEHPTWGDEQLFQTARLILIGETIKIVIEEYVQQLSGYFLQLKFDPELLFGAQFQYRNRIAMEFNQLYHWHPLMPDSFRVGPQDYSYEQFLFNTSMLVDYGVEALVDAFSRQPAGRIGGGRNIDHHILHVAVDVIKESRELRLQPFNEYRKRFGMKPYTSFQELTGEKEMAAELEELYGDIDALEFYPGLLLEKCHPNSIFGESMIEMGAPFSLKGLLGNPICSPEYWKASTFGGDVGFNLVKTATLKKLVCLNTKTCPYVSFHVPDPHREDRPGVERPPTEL
Excerpt: as §5

[24] = system: Hepatic oxidative phosphorylation; test: Hepatic oxidative phosphorylation, Gilson oxygraph; type: biochemical, mouse; conditions: 10^-6 M; 1 µM
Excerpt: as §1

Hydroxyproline = test: Serum and urine hydroxyproline levels in vivo; conditions: Cf1 male mice, 8 mg/kg/day I.P. 14 days, N=6
Calcium = test: Serum and urine calcium levels in vivo; conditions: Cf1 male mice, 8 mg/kg/day I.P. 14 days, N=6
Phosphorus = test: Serum and urine inorganic phosphorus levels in vivo; conditions: Cf1 male mice, 8 mg/kg/day I.P. 14 days, N=6

In the case of `O.O.O.O.O.O.O.O.O.O.[Na+].[Na+].[O-]B1OB2OB([O-])OB(O1)O2` [sodium borate], the “urinary excretion of calcium, magnesium and perhaps phosphorus” value [1] is listed as “blocks the urinary excretion of calcium, magnesium and perhaps phosphorus”.

For `C[NH+](C)[BH2-]C#N` [Compound 10, Dimethylamine-cyanoborane], the “Anti-Inflammatory Activity Sprague Dawley Rats” value (Sprague Dawley Rats) was 61 % Control, the IC50 (Acid phosphatase [2]) was 8.9 µM and the IC50 (Cathepsin D [3]) was 3.2 µM. For the same molecule, the IC50 (5'-lipoxygenase) was 22.9 µM, the IC50 (Acid phosphatase [4]) was 1.13 µM and the IC50 (Aryl sulphatase [5]) was 9 µM. For the same molecule, the IC50 (Trypsin [6]) was 2.44 µM, the IC50 (Elastase [7]) was 2.53 µM and the IC50 [8] was 5.92 µM. It also gave an IC50 (Trypsin [9]) of 6.43 µM, an IC50 (Cathepsin D [10]) of 1.28 µM and an IC50 (Acid phosphatase [11]) of 8.7 µM. The IC50 (Aryl sulphatase [12]) was 7.91 µM, the IC50 (Elastase [13]) was 3.36 µM and the IC50 [14] was 5.58 µM. The IC50 [15] was 106 µM, the IC50 (Cathepsin [16]) was 53.8 µM and the response vs control in vivo (Cf1 male mice [17]) was 14.7%.

In the case of `C[N+](C)(C)[BH2-]C#N` [Compound 2, Trimethylamine-cyanoborane], the LD50 at 336 h (in vivo) is reported as 70 mg/kg, the Anti-inflammatory (Cf1 male mice [18]) is reported as 42 % Control and the “Anti-Inflammatory Activity Sprague Dawley Rats” value (Sprague Dawley Rats) is reported as 65 % Control. For the same molecule, the Writhing (Cf1 male mice [19]) was 18 % Control, the Anti-arthritic (Sprague Dawley male rats [20]) was 4 % Control and the Anti-pleurisy (Sprague Dawley male rats [21]) was 65 % Control. The “Mouse Liver Acid Phosph.” value (Acid phosphatase [2]; 5 × 10^-6 M, N=6, 5 µM) was 69 + 4 % Control, the IC50 (Acid phosphatase [2]) was 3.51 µM and the activity at 5 µM (Cathepsin D [3]; pH 5, read-out: Mouse Liver Cathep.) was 6%. The IC50 (Cathepsin D [3]) was 0.72 µM, the “Rat PMNs Acid Phoph.” value (Acid phosphatase [22]) was 35 + 5 % Control and the activity at 5 µM (Cathepsin [23]) was 4%. The “PMNs cAMP” value (cAMP) was 245 % Control, the IC50 (Prostaglandin synthetase) was 5.9 µM and the “Hepatic Oxidative Phosphorylation Succinate State 3” value [24] was 51 + 20 % Control. For the same molecule, the “Hepatic Oxidative Phosphorylation Succinate State 4” value [24] was 133 + 20 % Control, the “Hepatic Oxidative Phosphorylation alpha-Ketoglutrate State 3” value [24] was 41 + 9 % Control and the “Hepatic Oxidative Phosphorylation alpha-Ketoglutrate State 4” value [24] was 85 + 21 % Control. For the same molecule, the IC50 (Acid phosphatase [4]) was 1.05 µM, the IC50 (Aryl sulphatase [5]) was 9.29 µM and the IC50 (Trypsin [6]) was 1.41 µM. It also gave an IC50 (Elastase [7]) of 1.35 µM, an IC50 [8] of 5.88 µM and an IC50 (Trypsin [9]) of 3.98 µM. For the same molecule, the IC50 (Cathepsin D [10]) was 2.01 µM, the IC50 (Acid phosphatase [11]) was 15.9 µM and the IC50 (Aryl sulphatase [12]) was 8.87 µM. The IC50 (Elastase [13]) was 3.29 µM, the IC50 [14] was 4.26 µM and the IC50 (Cathepsin [16]) was 77.1 µM. It also gave a Hydroxyproline serum (Hydroxyproline) of 71.7 % Control, a Hydroxyproline urine (Hydroxyproline) of 42.5 % Control and a Calcium serum (Calcium) of 109.7 % Control. For the same molecule, the Calcium urine (Calcium) was 50.8 % Control, the Phosphorus serum (Phosphorus) was 81.6 % Control and the Phosphorus urine (Phosphorus) was 39.6 % Control. The response vs control in vivo (Cf1 male mice [17]) was 18%.

`C[B-](C#N)(C#N)[N+](C)(C)C` [Compound 16, Trimethylamine-methyldicyanoborane] gave an IC50 (Acid phosphatase [4]) of 1.1 µM, an IC50 (Aryl sulphatase [5]) of 8.48 µM and an IC50 (Trypsin [6]) of 1.62 µM. The IC50 (Elastase [7]) was 2.02 µM, the IC50 [8] was 3.05 µM and the IC50 (Trypsin [9]) was 3.35 µM. For the same molecule, the IC50 (Elastase [13]) was 3.6 µM, the IC50 [14] was 9.29 µM and the IC50 [15] was 110 µM. It also gave an IC50 (Cathepsin [16]) of 65.2 µM and a response vs control in vivo (Cf1 male mice [17]) of 33.9%.
